How the values were obtained:
Experiment in all cases: relative viability (nuclei count vs DMSO), 5 days (fraction); higher = more cells survive
[1] = compound: C1CNCCC1C2=CC(=NN2)C3=CC=NC=C3 + Cc1nc(NC(=O)N2CCC[C@H]2C(N)=O)sc1-c1ccnc(C(C)(C)C(F)(F)F)c1 [Alpelisib] (partner 2 µM)
Outline: (§1)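 Lung cancer cell lines in 1536-well plates were dosed by pin tool the day after seeding, either with one drug alone or with a fixed anchor-drug dose plus five library-drug doses (not always all listed) in √10 steps. After 5 days, cells were fixed and their nuclei stained in one step (final 0.05% Triton X-100, 1% formaldehyde, 1 ug/ml Hoechst), then counted on 4× images. Relative viability is the nuclei count in treated wells divided by that in vehicle wells. Values are medians of duplicate plates.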

[2] = compound: C[C@@H](N)c1ccc(C(=O)Nc2ccnc3[nH]ccc23)cc1 + CS(=O)(=O)CCNCc1ccc(-c2ccc3ncnc(Nc4ccc(OCc5cccc(F)c5)c(Cl)c4)c3c2)o1 [Lapatinib] (partner 2 µM)
Outline: as §1

[3] = compound: C1CNCCC1C2=CC(=NN2)C3=CC=NC=C3 + O=C(c1cc(Cc2n[nH]c(=O)c3ccccc23)ccc1F)N1CCN(C(=O)C2CC2)CC1 [Olaparib] (partner 8 µM)
Outline: as §1

[4] = compound: C[C@@H](N)c1ccc(C(=O)Nc2ccnc3[nH]ccc23)cc1 + CC(=O)Nc1cccc(-n2c(=O)n(C3CC3)c(=O)c3c(Nc4ccc(I)cc4F)n(C)c(=O)c(C)c32)c1 [Trametinib] (partner 0.02 µM)
Outline: as §1

Row | Cell Line | relative viability ([1]; first compound 0.08 µM) | relative viability ([1]; first compound 0.8 µM) | relative viability ([1]; first compound 2.53 µM) | relative viability ([1]; first compound 8 µM) | relative viability ([2]; first compound 0.04 µM) | relative viability ([2]; first compound 0.1265 µM) | relative viability ([2]; first compound 0.4 µM) | relative viability ([2]; first compound 1.265 µM) | relative viability ([2]; first compound 4 µM) | relative viability ([3]; first compound 0.08 µM) | relative viability ([3]; first compound 0.8 µM) | relative viability ([3]; first compound 2.53 µM) | relative viability ([3]; first compound 8 µM) | relative viability ([4]; first compound 0.04 µM) | relative viability ([4]; first compound 0.1265 µM) | relative viability ([4]; first compound 0.4 µM) | relative viability ([4]; first compound 4 µM) | relative viability ([4]; first compound 1.265 µM)
1 | NCI-H2023 | 0.539 | 0.5 | 0.573 | 0.613 | 0.844 | 0.737 | 1.15 | 0.0713 | 0.99 | 0.354 | 0.494 | 0.488 | 0.538 | 0.607 | 0.619 | 0.657 | 0.586 | 
2 | NCI-H2085 | 0.926 | 0.514 | 1.02 | 0.98 | 0.841 | 0.729 | 0.872 | 0.546 | 0.799 | 0.903 |  | 0.807 | 0.746 | 0.653 | 0.702 | 0.652 | 0.583 | 0.726
3 | NCI-H2087 | 0.862 | 1.07 | 1.07 | 0.985 | 0.85 | 1.22 | 0.831 | 0.148 | 0.825 | 0.522 | 0.545 | 0.528 | 0.633 | 0.284 | 0.214 | 0.202 | 0.251 | 0.229
4 | NCI-H2126 | 0.761 | 0.634 | 0.777 | 0.752 | 0.825 | 0.866 | 0.764 | 0.859 | 0.966 | 0.933 | 0.875 | 0.923 | 0.939 | 0.515 | 0.561 | 0.534 | 0.676 | 0.637
5 | NCI-H2170 | 0.734 | 0.761 | 0.81 | 0.684 | 0.28 | 0.273 | 0.302 | 0.323 | 0.26 | 0.606 | 0.632 | 0.626 | 0.609 | 0.959 | 0.944 | 0.926 | 0.939 | 0.999
6 | NCI-H2228 | 0.769 | 0.872 | 0.851 | 0.617 | 1.18 | 1.09 | 1.2 | 1.17 | 0.868 | 0.617 | 0.747 | 0.575 | 0.549 | 0.556 | 0.428 | 0.886 | 0.475 | 0.395
7 | NCI-H2347 | 0.989 | 0.938 | 1.17 | 1.01 | 0.833 | 0.959 | 0.933 | 0.347 | 0.868 | 0.534 | 0.514 | 0.477 | 0.571 | 0.283 | 0.337 | 0.366 | 0.175 | 0.304
8 | NCI-H2405 | 0.792 | 0.62 | 0.875 | 0.686 |  | 1.18 | 1.05 | 0.487 | 0.351 | 0.843 | 0.952 | 0.894 | 0.831 |  | 0.64 | 0.418 | 0.299 | 0.377
9 | NCI-H3122 | 0.87 | 0.81 | 0.799 | 0.753 | 0.966 | 1.04 | 1.08 | 0.875 | 0.981 | 0.571 | 0.6 | 0.583 | 0.61 | 0.231 | 0.229 | 0.223 | 0.234 | 0.26

Source: the supplement of paper PMC10307832
